Source: ChEMBL document CHEMBL4706555, “Synthesis of biphenyl oxazole derivatives via Suzuki coupling and biological evaluations as nucleotide pyrophosphatase/phosphodiesterase-1 and -3 inhibitors” (Eur J Med Chem, 2020)
pIC50: −log10 of the molar value.

How the values were obtained:
[1] = target: T1, Ectonucleotide pyrophosphatase/phosphodiesterase family member 1 (Homo sapiens) (UniProt P22413); assay: Inhibition of human recombinant NPP1 expressed in COS-7 cell membrane using p-nitrophenyl thymidine monophosphate substrate incubated for 35 mins by spectrophotometric analysis; type: cell membranes; parameters: concentration or dose not given beside the values
T1 sequence (whole entry): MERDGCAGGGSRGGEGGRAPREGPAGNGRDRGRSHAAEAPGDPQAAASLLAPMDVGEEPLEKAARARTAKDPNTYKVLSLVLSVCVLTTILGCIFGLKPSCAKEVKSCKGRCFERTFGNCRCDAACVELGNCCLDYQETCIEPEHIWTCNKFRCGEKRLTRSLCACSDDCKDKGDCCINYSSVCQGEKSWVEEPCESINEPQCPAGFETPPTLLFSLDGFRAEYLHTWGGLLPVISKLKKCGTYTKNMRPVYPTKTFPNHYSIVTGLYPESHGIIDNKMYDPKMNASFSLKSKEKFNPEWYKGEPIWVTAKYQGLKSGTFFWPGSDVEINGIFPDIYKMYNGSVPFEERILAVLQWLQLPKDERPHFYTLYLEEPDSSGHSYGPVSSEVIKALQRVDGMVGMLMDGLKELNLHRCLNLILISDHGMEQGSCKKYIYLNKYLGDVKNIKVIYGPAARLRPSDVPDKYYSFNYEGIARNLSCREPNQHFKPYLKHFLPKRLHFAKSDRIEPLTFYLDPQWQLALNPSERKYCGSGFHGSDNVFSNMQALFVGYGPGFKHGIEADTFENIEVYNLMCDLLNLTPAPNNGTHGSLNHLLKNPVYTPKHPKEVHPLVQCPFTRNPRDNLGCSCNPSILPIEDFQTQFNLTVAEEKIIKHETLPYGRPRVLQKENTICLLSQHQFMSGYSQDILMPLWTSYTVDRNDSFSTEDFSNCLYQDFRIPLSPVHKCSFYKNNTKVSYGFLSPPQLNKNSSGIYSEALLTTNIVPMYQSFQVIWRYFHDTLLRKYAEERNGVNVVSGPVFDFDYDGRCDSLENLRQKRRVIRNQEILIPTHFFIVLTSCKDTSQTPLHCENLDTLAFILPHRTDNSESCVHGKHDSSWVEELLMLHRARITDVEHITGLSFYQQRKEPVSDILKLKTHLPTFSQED

[2] = target: Ectonucleotide pyrophosphatase/phosphodiesterase family member 3 (Homo sapiens) (UniProt O14638); assay: Inhibition of human recombinant NPP3 expressed in COS-7 cell membrane using p-nitrophenyl thymidine monophosphate substrate incubated for 35 mins by spectrophotometric analysis; parameters: concentration or dose not given beside the values
[3] = target: T2, Ectonucleotide pyrophosphatase/phosphodiesterase family member 1 (Homo sapiens, UniProt P22413); assay: Inhibition of human recombinant NPP1 expressed in COS-7 cell membrane […] using p-nitrophenyl thymidine monophosphate substrate incubated for 35 mins by spectrophotometric analysis; type: cell membranes
T2 sequence (P22413 whole entry): T1 sequence (whole entry)

[4] = target: T3, Ectonucleotide pyrophosphatase/phosphodiesterase family member 3 (Homo sapiens, UniProt O14638); assay: Inhibition of human recombinant NPP3 expressed in COS-7 cell membrane […] using p-nitrophenyl thymidine monophosphate substrate incubated for 35 mins by spectrophotometric analysis; type: cell membranes
T3 sequence (O14638 whole entry): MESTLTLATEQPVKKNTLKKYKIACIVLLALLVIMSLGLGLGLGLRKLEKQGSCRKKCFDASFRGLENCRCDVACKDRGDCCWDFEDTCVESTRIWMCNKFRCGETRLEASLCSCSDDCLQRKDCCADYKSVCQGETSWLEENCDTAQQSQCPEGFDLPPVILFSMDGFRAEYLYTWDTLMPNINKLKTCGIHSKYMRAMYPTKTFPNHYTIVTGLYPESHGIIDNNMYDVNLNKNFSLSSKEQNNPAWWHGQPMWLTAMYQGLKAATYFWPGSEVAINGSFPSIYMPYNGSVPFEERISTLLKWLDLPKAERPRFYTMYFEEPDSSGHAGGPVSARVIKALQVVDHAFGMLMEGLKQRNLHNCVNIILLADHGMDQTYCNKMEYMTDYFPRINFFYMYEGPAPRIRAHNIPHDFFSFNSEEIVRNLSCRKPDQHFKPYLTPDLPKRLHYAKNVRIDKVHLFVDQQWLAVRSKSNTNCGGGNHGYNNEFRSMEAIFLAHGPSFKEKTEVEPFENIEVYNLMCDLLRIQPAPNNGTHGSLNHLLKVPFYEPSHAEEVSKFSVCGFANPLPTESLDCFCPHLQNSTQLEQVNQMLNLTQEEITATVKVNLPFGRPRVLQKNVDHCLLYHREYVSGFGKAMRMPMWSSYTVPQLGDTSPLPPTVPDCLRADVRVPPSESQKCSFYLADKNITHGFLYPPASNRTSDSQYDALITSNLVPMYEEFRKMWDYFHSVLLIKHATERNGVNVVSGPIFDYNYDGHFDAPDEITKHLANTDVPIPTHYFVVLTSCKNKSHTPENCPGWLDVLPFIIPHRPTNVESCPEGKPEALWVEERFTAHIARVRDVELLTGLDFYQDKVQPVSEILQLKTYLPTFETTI

[5] = target: T1, Ectonucleotide pyrophosphatase/phosphodiesterase family member 1 (Homo sapiens); assay: Potency index, ratio of IC50 for suramin to IC50 for test compound for human recombinant NPP1 expressed in COS-7 cell membrane using p-nitrophenyl thymidine monophosphate substrate incubated for 35 mins by spectrophotometric analysis; type: cell membranes
[6] = target: T4, Ectonucleotide pyrophosphatase/phosphodiesterase family member 3 (Homo sapiens) (UniProt O14638); assay: Potency index, ratio of IC50 for suramin to IC50 for test compound for human recombinant NPP3 expressed in COS-7 cell membrane using p-nitrophenyl thymidine monophosphate substrate incubated for 35 mins by spectrophotometric analysis; type: cell membranes
T4 sequence (whole entry): T3 sequence (O14638 whole entry)

SMILES	inhibition [1]	inhibition [2]	pIC50 [3]	pIC50 [4]	further results
c1ccc(-c2ccc(-c3coc(-c4ccccc4)n3)cc2)cc1	31%	49%	–	–	–
Cc1nc(-c2ccc(-c3cccc4ccccc34)cc2)co1	–	–	5.62	6.82	–
CCOc1ccccc1-c1nc(-c2ccc(-c3cccc4ccccc34)cc2)co1	–	40%	6.82	–	Ratio IC50 [5]: 51.8
Cc1nc(-c2ccc(-c3ccccc3)cc2)co1	46%	43%	–	–	–
Cc1nc(-c2ccc(-c3ccc(OCc4ccccc4)cc3)cc2)co1	–	–	5.84	5.88	–
Cc1cccc(-c2ccc(-c3coc(C)n3)cc2)c1	43%	–	–	5.77	–
c1ccc(-c2nc(-c3ccc(-c4cccc5ccccc45)cc3)co2)cc1	44%	43%	–	–	–
CCOc1ccccc1-c1nc(-c2ccc(-c3ccc(C)cc3)cc2)co1	–	–	5.03	4.95	–
CCOc1ccccc1-c1nc(-c2ccc(-c3ccccc3)cc2)co1	27%	48%	–	–	–
COc1ccc(-c2ccc(-c3coc(-c4ccccc4)n3)cc2)cc1	–	–	4.76	5.43	–
c1ccc(-c2ccc(-c3coc(-c4ccccc4-c4ccccc4)n3)cc2)cc1	33%	47%	–	–	–
COc1ccc(-c2ccc(-c3coc(C)n3)cc2)cc1	38%	–	–	6.77	Ratio IC50 [6]: 5.3
Cc1cccc(-c2ccc(-c3coc(-c4ccccc4-c4cccc(C)c4)n3)cc2)c1	36%	–	–	5.66	–
Cc1cccc(-c2ccc(-c3coc(-c4ccccc4)n3)cc2)c1	48%	–	–	–	–
Cc1nc(-c2ccc(-c3ccccc3C)cc2)co1	40%	45%	–	–	–
Cc1ccccc1-c1ccc(-c2coc(-c3ccccc3)n2)cc1	–	–	6.38	5.37	–
Cc1ccc(-c2ccc(-c3coc(C)n3)cc2)cc1	–	–	5.59	5.30	–
